We go through 13 molecules from US11524963B2, “Substituted pyrazolo[3,4-d]pyrimidines as RET kinase inhibitors” (Array Biopharma Inc., priority 2018, dated 2022).

The target of one experiment is RET kinase M918T (Homo sapiens, UniProt P07949, M918T). Kind of experiment: RET Enzyme Assay (HTRF KinEASE-TK), M918T. It counts as biochemical.
The target of experiment [1] is T1, HEK-293 cells expressing a Kif5b-RET fusion protein (Homo sapiens, UniProt P07949).
T1 construct: expressed in transfected cells; host or cells: HEK-293; the other entry of the earlier key: KIF5B (P33176, Kinesin-1 heavy chain)
T1 sequence (P07949 713-1063 limits assumed): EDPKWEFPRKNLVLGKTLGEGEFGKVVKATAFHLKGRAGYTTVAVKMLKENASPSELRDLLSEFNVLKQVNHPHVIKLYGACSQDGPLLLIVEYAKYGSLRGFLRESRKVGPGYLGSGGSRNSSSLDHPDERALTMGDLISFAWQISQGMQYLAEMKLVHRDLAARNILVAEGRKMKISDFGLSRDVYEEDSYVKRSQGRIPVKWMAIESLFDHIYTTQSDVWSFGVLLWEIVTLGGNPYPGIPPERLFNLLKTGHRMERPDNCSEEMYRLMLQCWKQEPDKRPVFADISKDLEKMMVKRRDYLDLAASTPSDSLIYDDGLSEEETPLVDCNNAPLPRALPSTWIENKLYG
Description: RET Cell Assay (phospho-RET Tyr1062). It is filed as cell-based. Particulars: 1 hour with compound, phospho-RET(Tyr1062) normalized to GAPDH, read-out: KIF5B-RET pTYR1062 Cell IC50. The protocol:
(§1) The cellular potency of compounds inhibiting RET kinase were determined in HEK-293 cells expressing a Kif5b-RET fusion protein. Briefly, HEK-293 cells expressing a Kif5b-RET fusion protein were plated at 50K cells/well in 96 well poly-D-Lysine coated plates the day prior to the assay. The cells were incubated for 1 hour with test compound in DMEM (Dulbecco's Modified Eagle Medium) at a final DMSO concentration of 0.5%. […] After 1 hour the media was removed, the cells were fixed with 3.8% formaldehyde for 20 min, washed with PBS, and permeabilized for 10 min with 100% methanol. […] All antibodies were diluted in LI-COR Block containing 0.05% Tween. The plates were washed with PBS-0.05% Tween20, 100 μL PBS is added to each well, and the plates were read on a LI-COR Aerius fluorescent plate reader. The phospho-RET signal was normalized to the GAPDH signal. 100 POC (percent of control) was determined using no test compounds and 0 POC was determined using 1 μM of a control inhibitor. The POC values were fit to a 4 parameter logistic curve. The IC50 value is the point where the curve crosses 50 POC.

In another experiment the target is RET kinase G810S (Homo sapiens, UniProt P07949, G810S). Kind of experiment: RET Enzyme Assay (HTRF KinEASE-TK), G810S. It counts as biochemical. For orientation: Time-resolved FRET reads energy transfer from a long-lived donor to a nearby acceptor.
The next experiment deals with RET kinase V804M (Homo sapiens, UniProt P07949, V804M). Kind of experiment: RET Enzyme Assay (HTRF KinEASE-TK), V804M. It is filed as biochemical.
Another experiment addresses RET kinase G810R (Homo sapiens, UniProt P07949, G810R). Description: RET Enzyme Assay (HTRF KinEASE-TK), G810R. It counts as biochemical.
The next experiment deals with RET kinase Wild Type (Homo sapiens, UniProt P07949). Kind of experiment: RET Enzyme Assay (HTRF KinEASE-TK), Wild Type. It counts as biochemical.
The target in experiment [2] is T2, HEK-293 cells expressing a G810R mutant RET Kif5b-RET fusion protein (Homo sapiens, UniProt P07949, G810R).
T2 construct: expressed in transfected cells; host or cells: HEK-293; the other entry of the earlier key: KIF5B (P33176, Kinesin-1 heavy chain)
T2 sequence (P07949 713-1063 G810R limits assumed): T1 sequence (P07949 713-1063 limits assumed) with G98R
Kind of experiment: RET G810R Mutant Cell Assay (phospho-RET Tyr1062). It counts as cell-based. Conditions: 1 hour with compound, phospho-RET(Tyr1062) normalized to GAPDH. On the procedure:
RET G810R and G810S Mutant Cell Assay
as §1, with “expressing a G810R or G810S mutant RET Kif5b-RET fusion” for “expressing a Kif5b-RET fusion”, “μL PBS was added to” for “μL PBS is added to”, “POC values are fit to” for “POC values were fit to”

Where a chain is given by its changes, count along the chain named.

Chain of RET kinase Wild Type (P07949 29-1114): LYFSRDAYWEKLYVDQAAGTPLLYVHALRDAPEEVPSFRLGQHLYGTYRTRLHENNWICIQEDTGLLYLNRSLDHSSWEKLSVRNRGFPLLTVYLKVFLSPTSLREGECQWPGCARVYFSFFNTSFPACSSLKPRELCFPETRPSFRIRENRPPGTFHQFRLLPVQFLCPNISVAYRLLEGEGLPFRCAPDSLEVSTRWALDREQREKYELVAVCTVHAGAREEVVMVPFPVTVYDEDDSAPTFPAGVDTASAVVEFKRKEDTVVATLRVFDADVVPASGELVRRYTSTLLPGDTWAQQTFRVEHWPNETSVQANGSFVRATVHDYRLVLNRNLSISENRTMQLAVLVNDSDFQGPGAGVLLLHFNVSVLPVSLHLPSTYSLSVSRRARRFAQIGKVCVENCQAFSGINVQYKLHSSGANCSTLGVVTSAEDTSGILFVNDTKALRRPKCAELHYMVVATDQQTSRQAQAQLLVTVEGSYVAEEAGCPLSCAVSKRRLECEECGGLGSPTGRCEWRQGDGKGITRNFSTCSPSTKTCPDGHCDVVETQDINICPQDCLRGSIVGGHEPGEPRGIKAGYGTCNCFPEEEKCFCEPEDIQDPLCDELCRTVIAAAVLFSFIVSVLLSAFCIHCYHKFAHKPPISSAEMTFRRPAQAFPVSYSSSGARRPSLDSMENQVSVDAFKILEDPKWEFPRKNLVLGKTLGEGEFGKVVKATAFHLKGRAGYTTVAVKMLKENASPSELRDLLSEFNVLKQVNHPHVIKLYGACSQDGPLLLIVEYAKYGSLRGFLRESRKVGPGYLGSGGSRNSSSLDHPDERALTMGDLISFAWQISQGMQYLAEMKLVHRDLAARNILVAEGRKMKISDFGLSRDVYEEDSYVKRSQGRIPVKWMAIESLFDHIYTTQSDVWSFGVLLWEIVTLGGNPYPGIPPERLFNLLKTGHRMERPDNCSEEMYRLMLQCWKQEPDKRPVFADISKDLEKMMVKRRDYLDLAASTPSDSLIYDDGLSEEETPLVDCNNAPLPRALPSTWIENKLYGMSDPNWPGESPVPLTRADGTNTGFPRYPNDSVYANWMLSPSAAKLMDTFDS
Chain of RET kinase V804M (P07949 29-1114 V804M): as the sequence (P07949 29-1114) above, with V776M counted along it
Chain of RET kinase G810S (P07949 29-1114 G810S): as the sequence (P07949 29-1114) above, with G782S counted along it
Chain of RET kinase M918T (P07949 29-1114 M918T): as the sequence (P07949 29-1114) above, with M890T counted along it
Chain of RET kinase G810R (P07949 29-1114 G810R): as the sequence (P07949 29-1114) above, with G782R counted along it

Regarding `CC(C)n1nc(-c2noc(C3CC3)c2C2=CCC(=O)CC2)c2c(N)ncnc21` [Example 5, 4-(3-(4-amino-1-isopropyl-1H-pyrazolo[3,4-d]pyrimidin-3-yl)-5-cyclopropylisoxazol-4-yl)cyclohex-3-en-1-one], the IC50 against RET kinase M918T came out at 3.2 nM; in experiment [1], 105 nM; at RET kinase G810S, 11.7 nM; against RET kinase V804M, 20.5 nM; at RET kinase G810R, 7.1 nM; against RET kinase Wild Type it was 2.7 nM.
For the molecule `CC(C)n1nc(-c2noc(C3CC3)c2-c2ccn(C)n2)c2c(N)ncnc21` [Example 2, 3-(5-cyclopropyl-4-(1-methyl-1H-pyrazol-3-yl)isoxazol-3-yl)-1-isopropyl-1H-pyrazolo[3,4-d]pyrimidin-4-amine], the IC50 stood at 247 nM in experiment [2]; 1.1 nM on RET kinase M918T; 75 nM in experiment [1]; 4.4 nM at RET kinase G810S; 2.1 nM against RET kinase V804M; 4.4 nM on RET kinase G810R. Moreover, the IC50 on RET kinase Wild Type came to 1.2 nM.
Turning to `C=Cc1cc(-c2nn(C(C)C)c3ncnc(N)c23)n(C2CCCCO2)n1` (stereo not shown) [Example 22, 1-isopropyl-3-(1-(tetrahydro-2H-pyran-2-yl)-3-vinyl-1H-pyrazol-5-yl)-1H-pyrazolo[3,4-d]pyrimidin-4-amine], the IC50 is 214 nM in experiment [2]; 3 nM against RET kinase M918T; 21 nM in experiment [1]; 13 nM against RET kinase G810S; 307 nM at RET kinase V804M; 16.5 nM against RET kinase G810R. The molecule also returned an IC50 against RET kinase Wild Type of 2.3 nM.
Regarding `CC(C)n1nc(-c2noc(C3CC3)c2C2=CCCCO2)c2c(N)ncnc21` [Example 9, 3-(5-cyclopropyl-4-(3,4-dihydro-2H-pyran-6-yl)isoxazol-3-yl)-1-isopropyl-1H-pyrazolo[3,4-d]pyrimidin-4-amine], the IC50 in experiment [2] turned out to be 137 nM; against RET kinase M918T, 0.2 nM; in experiment [1], 24 nM; on RET kinase G810S, 1.4 nM; against RET kinase V804M it was 0.6 nM; against RET kinase G810R, 1.4 nM. Moreover, at RET kinase Wild Type, the IC50 was 0.3 nM.
Turning to `CC(C)n1nc(-c2ccnn2C2CCCCO2)c2c(N)ncnc21` (stereo not shown) [Example 23, 1-isopropyl-3-(1-(tetrahydro-2H-pyran-2-yl)-1H-pyrazol-5-yl)-1H-pyrazolo[3,4-d]pyrimidin-4-amine], the IC50 in experiment [2] is 10000 nM; on RET kinase M918T it was 8.5 nM; in experiment [1], 344 nM; at RET kinase G810S, 46 nM; on RET kinase V804M it was 27.4 nM; on RET kinase G810R it was 15.8 nM. The molecule also registered an IC50 against RET kinase Wild Type of 4.1 nM.
For the molecule `CC(C)n1nc(-c2noc(C3CC3)c2C2=CCC(C)(O)CC2)c2c(N)ncnc21` (stereo not shown) [Example 15, 4-(3-(4-amino-1-isopropyl-1H-pyrazolo[3,4-d]pyrimidin-3-yl)-5-cyclopropylisoxazol-4-yl)-1-methylcyclohex-3-en-1-ol], the IC50 was found to be 263 nM in experiment [2]; 1.6 nM against RET kinase M918T; 42 nM in experiment [1]; 6.3 nM at RET kinase G810S; 6.5 nM at RET kinase V804M; 6.3 nM against RET kinase G810R. The molecule also had an IC50 on RET kinase Wild Type of 1.3 nM.
As for `CC(C)n1nc(-c2noc(C3CC3)c2-c2ncccn2)c2c(N)ncnc21` [Example 11, 3-(5-cyclopropyl-4-(pyrimidin-2-yl)isoxazol-3-yl)-1-isopropyl-1H-pyrazolo[3,4-d]pyrimidin-4-amine], the IC50 against RET kinase M918T came to 1.2 nM; in experiment [1], 86 nM; against RET kinase G810S, 4.9 nM; against RET kinase V804M, 4.4 nM; at RET kinase G810R, 3.5 nM; against RET kinase Wild Type, 1.5 nM.
As to `CC(C)n1nc(-c2noc(C3CC3)c2C2CCCCO2)c2c(N)ncnc21` (stereo not shown) [Example 16, 3-(5-cyclopropyl-4-(tetrahydro-2H-pyran-2-yl)isoxazol-3-yl)-1-isopropyl-1H-pyrazolo[3,4-d]pyrimidin-4-amine], the half-maximal inhibitory concentration (IC50) in experiment [2] turned out to be 162 nM; on RET kinase M918T it was 0.7 nM; in experiment [1] it was 28 nM; on RET kinase G810S, 4 nM; at RET kinase V804M it was 1.3 nM; against RET kinase G810R, 3.6 nM. This molecule also yielded an IC50 on RET kinase Wild Type of 0.6 nM.
Turning to `CC(C)n1nc(-c2noc(C3CC3)c2C2CCOCC2)c2c(N)ncnc21` [Example 17, 3-(5-cyclopropyl-4-(tetrahydro-2H-pyran-4-yl)isoxazol-3-yl)-1-isopropyl-1H-pyrazolo[3,4-d]pyrimidin-4-amine], the IC50 in experiment [2] turned out to be 264 nM; at RET kinase M918T, 0.8 nM; in experiment [1] it was 68 nM; against RET kinase G810S it was 3.7 nM; against RET kinase V804M, 7.5 nM; on RET kinase G810R, 2.2 nM. On RET kinase Wild Type, half-maximal inhibition (IC50) required 0.7 nM.
Regarding `CC(C)n1nc(-c2noc(C3CC3)c2-c2ccccc2)c2c(N)ncnc21` [Example 6, 3-(5-cyclopropyl-4-phenylisoxazol-3-yl)-1-isopropyl-1H-pyrazolo[3,4-d]pyrimidin-4-amine], the IC50 against RET kinase M918T worked out at 4.5 nM; in experiment [1] it was 488 nM; at RET kinase G810S, 26.2 nM; against RET kinase V804M it was 23.9 nM; against RET kinase G810R it was 10 nM; on RET kinase Wild Type, 4.7 nM.
On to `CC(C)n1nc(-c2noc(C3CC3)c2Br)c2c(N)ncnc21` [Example 1, 3-(4-bromo-5-cyclopropylisoxazol-3-yl)-1-isopropyl-1H-pyrazolo[3,4-d]pyrimidin-4-amine], for which the IC50 on RET kinase M918T amounted to 1.8 nM; in experiment [1], 263 nM; on RET kinase G810S, 11.7 nM; on RET kinase V804M, 5.7 nM; against RET kinase G810R, 3.8 nM; against RET kinase Wild Type, 2.1 nM.
Consider `CC(C)n1nc(-c2noc(C3CC3)c2C2=COCCC2)c2c(N)ncnc21` [Example 10, 3-(5-cyclopropyl-4-(3,4-dihydro-2H-pyran-5-yl)isoxazol-3-yl)-1-isopropyl-1H-pyrazolo[3,4-d]pyrimidin-4-amine], for which the IC50 against RET kinase M918T was 2.2 nM; in experiment [1], 199 nM; against RET kinase G810S, 13.6 nM; against RET kinase V804M, 13.8 nM; at RET kinase G810R, 4.1 nM; against RET kinase Wild Type, 1.5 nM.
`CC(C)n1nc(-c2noc([C@@H](C)O)c2-c2ccccn2)c2c(N)ncnc21` [Example 18, (R)-1-(3-(4-amino-1-isopropyl-1H-pyrazolo[3,4-d]pyrimidin-3-yl)-4-(pyridin-2-yl)isoxazol-5-yl)ethan-1-ol]: the IC50 was 1 nM against RET kinase M918T; 42 nM in experiment [1]; 4.3 nM on RET kinase G810S; 3.1 nM on RET kinase V804M; 4.4 nM against RET kinase G810R; 1.1 nM against RET kinase Wild Type.

For orientation: IC50 means the concentration at which inhibition is half-maximal.
